This is an account of results in patent US11851676B2, “Human neural precursor cells with inducible STIM1 knockdown” (NATIONAL CENTRE FOR BIOLOGICAL SCIENCES, priority 2018, dated 2023).

In one test the test system is SOCE in human NPCs. Briefly: Thapsigargin-induced store release and SOCE Ca2+ imaging in human NPCs. It counts as cell-based. To be noted: thapsigargin 10 μM store depletion, re-addition of 2 mM Ca2+; pharmacological inhibitors vs DMSO.
For the next test, the system named is SOCE in NPCs. The conditions noted are these: embryonic and adult mouse NSCs/NPCs; cited from earlier work.
Test [1] deals with SVZ cells. To be noted: pharmacological blockade of SOC, in vitro; cited from earlier work.
For test [2], the system named is SVZ cells. To be noted: injection in brain lateral ventricle; cited from earlier work.

Protocol for SOCE in human NPCs: (A, B) Ca^2+-responses during ER-store release and SOCE induced by Thapsigargin (TG, 10 μM) measured using the ratiometric Ca^2+-indicator indo-1-AM in wild-type (WT) hNPCs (A) or hNPCs treated with pharmacological inhibitors of SOCE, BTP-2 and 2-APB at the indicated concentrations or DMSO as a solvent control (B). Each trace represents the mean+SEM for 25-100 cells. Ionomycin (Iono, 10 μM) was added at the end of each imaging to determine the peak F405/485 ratio obtained after saturation of the Ca′-indicator with Ca^2+ (C) Box plots quantifying the peak F405/485 values for store-release and SOCE in the indicated treatment conditions.
(Top) A representative Western blot showing levels of STIM1 protein in hNPCs transduced with an NTC (non-targeting control) or an sh-RNA targeting STIM1 (STIM1 KD). Actin serves as the loading control. […] (E) Ca^2+-responses during store-release and SOCE in hNPCs transduced with NTC and STIM1 KD. (F) Box plots quantifying the peak F405/485 values for store-release and SOCE in the indicated genotypes.

For `NCCOB(c1ccccc1)c1ccccc1` [2-APB, 2-aminoethoxy-diphenyl borate], the “effect on SOCE in human NPCs” value in the test with SOCE in human NPCs is reported as “significantly inhibited SOCE”. For the same molecule, the “effect on SOCE in mouse NPCs” value in the test with SOCE in NPCs is given as “blocked”.
For `Cc1nnsc1C(=O)Nc1ccc(-n2nc(C(F)(F)F)cc2C(F)(F)F)cc1` [BTP-2], the “effect on SOCE in human NPCs” value in the test with SOCE in human NPCs is on record as “significantly inhibited SOCE”. Moreover, in the test on SOCE in NPCs, the “effect on SOCE in mouse NPCs” value was “blocked”. In addition, the “effect on proliferation of SVZ cells” value in the test on SVZ cells [1] is “decreases proliferation”.
Regarding `[La+3]` [La^3+], the “effect on SOCE in mouse NPCs” value in the test with SOCE in NPCs is on record as “blocked”.
As for `COc1ccc(CCCOC(Cn2ccnc2)c2ccc(OC)cc2)cc1` (centres unmarked) [SKF-96365], the “effect on SVZ cell proliferation in vivo” value in the test on SVZ cells [2] is “diminishes SVZ cell proliferation”. In addition, the “effect on proliferation of SVZ cells” value in the test with SVZ cells [1] is given as “decreases proliferation”.
